Assay results published in US10988478B1, “Pyrazolo[1,5a]pyrimidine derivatives as IRAK4 modulators” (Genentech, Inc., priority 2015, dated 2021).

Biological target: human IRAK4 (Homo sapiens (Human), UniProt Q9NWZ3)
Test: IRAK4 kinase inhibition, Transcreener fluorescence polarization ADP assay
Format: biochemical
Conditions: recombinant full-length His6-IRAK4; 125 uM ATP; 90 min; Ki computed using ATP Km 642 uM
Procedure: Compounds were assayed for inhibition of human IRAK4 and IRAK1 catalytic activity using recombinant enzyme produced from insect cells. Full-length IRAK4 protein, carrying an N-terminal His6-Tag, was obtained from Life Technologies (Carlsbad, Calif., USA). The IRAK1 construct was produced internally and was comprised of IRAK1 residues Arg194 to Ser712, preceded by an NH2-terminal His6 tag and the coding sequence for glutathione-S-transferase.

human IRAK4, sequence (Q9NWZ3 whole entry): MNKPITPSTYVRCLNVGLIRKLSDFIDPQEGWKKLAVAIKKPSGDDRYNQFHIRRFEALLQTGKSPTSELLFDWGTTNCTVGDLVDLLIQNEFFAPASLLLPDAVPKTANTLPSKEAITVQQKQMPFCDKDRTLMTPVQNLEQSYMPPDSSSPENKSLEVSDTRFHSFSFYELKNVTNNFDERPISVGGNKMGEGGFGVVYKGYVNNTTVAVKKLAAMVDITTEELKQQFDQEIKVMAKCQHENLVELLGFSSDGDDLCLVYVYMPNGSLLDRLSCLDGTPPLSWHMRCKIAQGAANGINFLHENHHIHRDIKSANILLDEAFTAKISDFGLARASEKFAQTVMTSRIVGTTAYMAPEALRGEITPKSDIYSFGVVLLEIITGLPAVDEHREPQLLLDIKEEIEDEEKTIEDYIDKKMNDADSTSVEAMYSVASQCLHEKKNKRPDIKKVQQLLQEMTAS

Compound | Ki
O=C(Nc1cc2c(cc1N1CCN(CC(F)F)CC1)C(=O)N(CC(F)(F)F)C2)c1cnn2cccnc12 [Example 266, N-[6-[4-(2,2-Difluoroethyl)piperazin-1-yl]-1-oxo-2-(2,2,2-trifluoroethyl)isoindolin-5-yl]pyrazolo[1,5-a]pyrimidine-3-carboxamide] | 9 nM
C[C@@]1(CO)Cc2cc(NC(=O)c3cnn4cccnc34)c(N3CCC([C@@](C)(O)C(F)(F)F)CC3)cc2O1 [Example 411, N—((S)-2-(hydroxymethyl)-2-methyl-6-(4-((R)-1,1,1-trifluoro-2-hydroxypropan-2-yl)piperidin-1-yl)-2,3-dihydrobenzofuran-5-yl)pyrazolo[1,5-a]pyrimidine-3-carboxamide] | 7.6 nM
Cc1cnc2c(C(=O)Nc3cc4c(cc3N3CCOCC3)C(=O)N(C[C@@H](F)C(C)(C)O)C4)cnn2c1 [Example 264, N-[2-[(2R)-2-Fluoro-3-hydroxy-3-methyl-butyl]-6-morpholino-1-oxo-isoindolin-5-yl]-6-methyl-pyrazolo[1,5-a]pyrimidine-3-carboxamide] | 2 nM
CCOP(=O)(OCC)OCC1CCN(c2cc3c(cc2NC(=O)c2cnn4cccnc24)CC(C)(C)O3)CC1 [Example 145, [1-[2,2-Dimethyl-5-(pyrazolo[1,5-a]pyrimidine-3-carbonylamino)-3H-benzofuran-6-yl]-4-piperidyl]methyl diethyl phosphate] | 130 nM
CC1(C)Cc2cc(NC(=O)c3cnn4cccnc34)c(N3CCC(O)(CC(N)=O)CC3)cc2O1 [Example 536, N-[6-[4-(2-amino-2-oxo-ethyl)-4-hydroxy-1-piperidyl]-2,2-dimethyl-3H-benzofuran-5-yl]pyrazolo[1,5-a]pyrimidine-3-carboxamide] | 3.1 nM
CC1(C)Cc2cc(NC(=O)c3cnn4cccnc34)c(N3CCS(=O)(=O)CC3)cc2O1 [Example 41, N-[6-(1,1-Dioxo-thiomorpholin-4-yl)-2,2-dimethyl-2,3-dihydro-1-benzofuran-5-yl]pyrazolo[1,5-a]pyrimidine-3-carboxamide] | 84 nM
Cn1ccnc1-c1cc2c(cc1NC(=O)c1cnn3cccnc13)CC(C)(C)O2 [Example 406, N-[2,2-Dimethyl-6-(1-methylimidazol-2-yl)-3H-benzofuran-5-yl]pyrazolo[1,5-a]pyrimidine-3-carboxamide] | 150 nM
CC1(C)Cc2cc(NC(=O)c3cnn4cccnc34)c(N3CCCC(O)CC3)cc2O1 (stereo not shown) [Example 185, N-[6-(4-hydroxyazepan-1-yl)-2,2-dimethyl-3H-benzofuran-5-yl]pyrazolo[1,5-a]pyrimidine-3-carboxamide] | 5.8 nM
O=C(Nc1cc2c(cc1N1CCOCC1)C(=O)N(CC1CCCCO1)C2)c1cnn2cccnc12 (single isomer, unassigned) [Example 277, N-(6-morpholino-1-oxo-2-((tetrahydro-2H-pyran-2-yl)methyl)isoindolin-5-yl)pyrazolo[1,5-a]pyrimidine-3-carboxamide] | 16 nM
O=C(Nc1cc2c(cc1OCC(F)F)OC1(CCNCC1)C2)c1cnn2cccnc12 [Example 377, N-(6-(2,2-Difluoroethoxy)-3H-spiro[benzofuran-2,4′-piperidin]-5-yl)pyrazolo[1,5-a]pyrimidine-3-carboxamide] | 11 nM
C[C@@H](C(N)=O)N1CCN(c2cc3c(cc2NC(=O)c2cnn4cccnc24)CC(C)(C)O3)CC1 [Example 473, N-[6-[4-[(1S)-2-amino-1-methyl-2-oxo-ethyl]piperazin-1-yl]-2,2-dimethyl-3H-benzofuran-5-yl]pyrazolo[1,5-a]pyrimidine-3-carboxamide] | 5 nM
CC1(COc2cc3c(cc2NC(=O)c2cnn4cccnc24)CC(C)(C)O3)COC1 [Example 299, N-(2,2-Dimethyl-6-((3-methyloxetan-3-yl)methoxy)-2,3-dihydrobenzofuran-5-yl)pyrazolo[1,5-α]pyrimidine-3-carboxamide] | 31 nM
CC1(C)Cc2cc(NC(=O)c3cnn4cccnc34)c(N3CCN(CCC#N)CC3)cc2O1 [Example 457, N-(6-(4-(2-cyanoethyl)piperazin-1-yl)-2,2-dimethyl-2,3-dihydrobenzofuran-5-yl)pyrazolo[1,5-a]pyrimidine-3-carboxamide] | 4.4 nM
N-[(2R)-6-[4-(2,2-difluoroethyl)piperazin-1-yl]-2-(hydroxymethyl)-2-methyl-3H-benzofuran-5-yl]-6-fluoro-pyrazolo[1,5-a]pyrimidine-3-carboxamide [Example 494] | 40 nM
O=C(Nc1cc2c(cc1N1CCOCC1)OC1(CCN(CCF)CC1)C2)c1cnn2cccnc12 [Example 501, N-(1′-(2-fluoroethyl)-6-morpholino-3H-spiro[benzofuran-2,4′-piperidin]-5-yl)pyrazolo[1,5-a]pyrimidine-3-carboxamide] | 6.9 nM

Results, then the compound that gave them:

Ki | Compound
26 nM | CC(C)N1Cc2cc(NC(=O)c3cnn4cccnc34)c(N3CCOCC3)cc2S1(=O)=O [Example 287, N-(2-Isopropyl-6-morpholino-1,1-dioxo-3H-1,2-benzothiazol-5-yl)pyrazolo[1,5-a] pyrimidine-3-carboxamide]
8.4 nM | C[C@@H](O)[C@@H](F)CN1Cc2cc(NC(=O)c3cnn4cccnc34)c(N3CCOCC3)cc2C1=O [Example 558, N-[2-[(2S,3R)-2-fluoro-3-hydroxy-butyl]-6-morpholino-1-oxo-isoindolin-5-yl]pyrazolo[1,5-a]pyrimidine-3-carboxamide]
5.8 nM | C[C@]1(CC(F)F)Cc2cc(NC(=O)c3cnn4cccnc34)c(N3CCOCC3)cc2O1 [Example 367, N-[(2R)-2-(2,2-difluoroethyl)-2-methyl-6-morpholino-3H-benzofuran-5-yl]pyrazolo[1,5-a]pyrimidine-3-carboxamide]
63 nM | CC(C)(O)CN1Cc2cc(NC(=O)c3cnn4cccnc34)c(N3CCOCC3)cc2S1(=O)=O [Example 288, N-[2-(2-Hydroxy-2-methyl-propyl)-6-morpholino-1,1-dioxo-3H-1,2-benzothiazol-5-yl]pyrazolo[1,5-a]pyrimidine-3-carboxamide]
38 nM | C[C@]1(CO)Cc2cc(NC(=O)c3cnn4cccnc34)c(OC(F)(F)F)cc2O1 [Example 171, (R)—N-(2-(Hydroxymethyl)-2-methyl-6-(trifluoromethoxy)-2,3-dihydrobenzofuran-5-yl)pyrazolo[1,5-a]pyrimidine-3-carboxamide]
4.6 nM | C[C@]1(CO)Cc2cc(NC(=O)c3cnn4cccnc34)c(N3CCC4(CC3)CNC4=O)cc2O1 [Example 320, (R)-N-(2-(hydroxymethyl)-2-methyl-6-(1-oxo-2,7-diazaspiro[3.5]nonan-7-yl)-2,3-dihydrobenzofuran-5-yl)pyrazolo[1,5-a]pyrimidine-3-carboxamide]
11 nM | O=C(Nc1cc2c(cc1N1CCOCC1)OC1(CCOCC1)C2)c1cnn2cccnc12 [Example 39, N-(6-Morpholino-2′,3′,5′,6′-tetrahydro-3H-spiro[benzofuran-2,4′-pyran]-5-yl)pyrazolo[1,5-a]pyrimidine-3-carboxamide]
36 nM | CC1(C)Cc2cc(NC(=O)c3cnn4cccnc34)c(N3CCc4[nH]cnc4C3)cc2O1 [Example 238, N-(2,2-Dimethyl-6-(1,4,6,7-tetrahydro-5H-imidazo[4,5-c]pyridin-5-yl)-2,3-dihydrobenzofuran-5-yl)pyrazolo[1,5-a]pyrimidine-3-carboxamide]
2 nM | CC(C)(O)[C@H](F)CN1Cc2cc(NC(=O)c3cnn4cc(C(N)=O)cnc34)c(N3CCOCC3)cc2C1=O [Example 286, N3-[2-[(2R)-2-Fluoro-3-hydroxy-3-methyl-butyl]-6-morpholino-1-oxo-isoindolin-5-yl]pyrazolo[1,5-a]pyrimidine-3,6-dicarboxamide]
6 nM | CC1(C)Cc2cc(NC(=O)c3cnn4cccnc34)c(N3Cc4cn[nH]c4C3)cc2O1 [Example 246, N-(6-(4,6-dihydropyrrolo[3,4-c]pyrazol-5(1H)-yl)-2,2-dimethyl-2,3-dihydrobenzofuran-5-yl)pyrazolo[1,5-a]pyrimidine-3-carboxamide]
760 nM | CC1(C)Cc2cc(NC(=O)c3cnn4cccnc34)c(OC[C@H]3CCCN3CC(F)F)cc2O1 [Example 292, (R)—N-(6-((1-(2,2-Difluoroethyl)pyrrolidin-2-yl)methoxy)-2,2-dimethyl-2,3-dihydrobenzofuran-5-yl)pyrazolo[1,5-a]pyrimidine-3-carboxamide]
28 nM | CC1(C)Cc2cc(NC(=O)c3cnn4cccnc34)c(OCC(F)(F)F)cc2O1 [Example 70, N-[2,2-Dimethyl-6-(2,2,2-trifluoroethoxy)-3H-benzofuran-5-yl]pyrazolo[1,5-a]pyrimidine-3-carboxamide]
16 nM | C[C@@]1(CO)Cc2cc(NC(=O)c3cnn4cccnc34)c(N3CCC(F)(F)CC3)cc2O1 [Example 121, (S)—N-(6-(4,4-Difluoropiperidin-1-yl)-2-(hydroxymethyl)-2-methyl-2,3-dihydrobenzofuran-5-yl)pyrazolo[1,5-a]pyrimidine-3-carboxamide]
6.2 nM | C[C@]1(C(F)F)Cc2cc(NC(=O)c3cnn4cccnc34)c(N3CCOCC3)cc2O1 [Example 50, (R)—N-(2-(Difluoromethyl)-2-methyl-6-morpholino-2,3-dihydrobenzofuran-5-yl)pyrazolo[1,5-a]pyrimidine-3-carboxamide]
26 nM | O=C(Nc1cc2c(cc1N1CCOCC1)C(=O)N(C1CCOC1)C2)c1cnn2cccnc12 (stereo not shown) [Example 254, N-(6-Morpholino-1-oxo-2-tetrahydrofuran-3-yl-isoindolin-5-yl)pyrazolo[1,5-a]pyrimidine-3-carboxamide]
28 nM | CC1(C)Cc2cc(NC(=O)c3cnn4cccnc34)c(N3CCN(CC(=O)NC4CC4)CC3)cc2O1 [Example 242, N-(6-(4-(2-(Cyclopropylamino)-2-oxoethyl)piperazin-1-yl)-2,2-dimethyl-2,3-dihydrobenzofuran-5-yl)pyrazolo[1,5-a]pyrimidine-3-carboxamide]
